From patent US9890147B2 (BAYER PHARMA AKTIENGESELLSCHAFT, priority 2012, dated 2018)

Assays:
BRD4 (BD1) = molecular target: T1, BRD4 (BD1) (Homo sapiens, UniProt O60885); experiment: Binding assay BRD4/acetylated peptide H4 (TR-FRET protein-protein interaction assay)
T1 construct: with relatively long constructs also being possible, preferably amino acids 44-168; made in house; host or cells: E. coli
Summary of the method: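 Displacement of biotin-Ac-H4 peptide from His6-tagged BRD4(BD1), final usually 10 nM, read as Eu-streptavidin to anti-His-XL665 TR-FRET (665/620 nm). Compounds tested at 11 doses up to 20 μM in duplicate, pH 7.5 HEPES, 22 °C then 4 °C incubation; IC50 by 4-parameter regression.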

MOLM-13 cells = experiment: Cell proliferation assay (alamarBlue), MOLM-13; type: cell-based; conditions: Homo sapiens, 96 hours incubation, inhibition of cell proliferation
Summary of the method: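 IC50 = concentration giving 50% growth inhibition relative to buffer-treated cells, after subtracting baseline fluorescence taken before dosing. Compound applied at 1E-5 to 1E-8 M for 96 h at 37 °C in RPMI1640 with 10% FCS; alamarBlue signal at 530/590 nm.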

Compound	IC50 (BRD4 (BD1)) [nM]	IC50 (MOLM-13 cells) [nM]
CNC(=O)N1N=C(c2ccc(-c3ccccc3OC(F)(F)F)cc2)c2cc(OC)c(OC)cc2CC1C (racemic) [Example 107, (±)-7,8-dimethoxy-N,4-dimethyl-1-[2′-(trifluoromethoxy)biphenyl-4-yl]-4,5-dihydro-3H-2,3-benzodiazepine-3-carboxamide]	260	630
CNC(=O)N1N=C(c2ccc(F)c(N3CCC(O)CC3)c2)c2cc(OC)c(OC)cc2CC1C (racemic) [Example 146, (±)-1-[4-fluoro-3-(4-hydroxypiperidin-1-yl)phenyl]-7,8-dimethoxy-N,4-dimethyl-4,5-dihydro-3H-2,3-benzodiazepine-3-carboxamide]	470	1150
CCc1cc(C2CC2)n(-c2ccc(C3=NN(C(=O)NC)[C@@H](C)Cc4ccc(OC)cc43)cc2)n1 [Example 25, (4S)-1-[4-(5-cyclopropyl-3-ethyl-1H-pyrazol-1-yl)phenyl]-8-methoxy-N,4-dimethyl-4,5-dihydro-3H-2,3-benzodiazepine-3-carboxamide]	160	740
CNC(=O)N1N=C(c2ccc(N3CCOCC3)cc2)c2cc(NC(C)=O)ccc2CC1C (racemic) [Example 171, (±)-8-Acetamido-N,4-dimethyl-1-[4-(morpholin-4-yl)phenyl]-4,5-dihydro-3H-2,3-benzodiazepine-3-carboxamide]	120	1910
CNC(=O)N1N=C(c2ccc(-c3ccccc3C(F)(F)F)cc2)c2cc(OC)c(OC)cc2CC1C (racemic) [Example 91, (±)-7,8-dimethoxy-N,4-dimethyl-1-[2′-(trifluoromethyl)biphenyl-4-yl]-4,5-dihydro-3H-2,3-benzodiazepine-3-carboxamide]	340	550
CNC(=O)N1N=C(c2ccc(-c3cnn(C)c3)cc2)c2cc(OC)ccc2C[C@@H]1C [Example 21, (4S)-8-methoxy-N,4-dimethyl-1-[4-(1-methyl-1H-pyrazol-4-yl)phenyl]-4,5-dihydro-3H-2,3-benzodiazepine-3-carboxamide]	130	560
CNC(=O)N1N=C(c2ccc(N3CCN(C)CC3)cc2)c2cc(NC(C)=O)ccc2CC1C (racemic) [Example 172, (±)-8-Acetamido-N,4-dimethyl-1-[4-(4-methylpiperazin-1-yl)phenyl]-4,5-dihydro-3H-2,3-benzodiazepine-3-carboxamide]	130	1910
CNC(=O)N1N=C(c2ccc(N3CCN(C)CC3=O)cc2)c2cc(OC)c(OC)cc2CC1C (racemic) [Example 43, (±)-7,8-dimethoxy-N,4-dimethyl-1-[4-(4-methyl-2-oxopiperazin-1-yl)phenyl]-4,5-dihydro-3H-2,3-benzodiazepine-3-carboxamide]	300	840
CNC(=O)N1N=C(c2ccc(-c3ccccc3Cl)cc2)c2cc(OC)c(OC)cc2CC1C (racemic) [Example 92, (±)-1-(2′-chlorobiphenyl-4-yl)-7,8-dimethoxy-N,4-dimethyl-4,5-dihydro-3H-2,3-benzodiazepine-3-carboxamide]	180	850
CNC(=O)N1N=C(c2ccc(-c3c(C)noc3C)cc2)c2cc(OC(F)(F)F)c(Cl)cc2CC1C (racemic) [Example 156, (±)-7-Chloro-1-[4-(3,5-dimethylisoxazol-4-yl)phenyl]-N,4-dimethyl-8-(trifluoromethoxy)-4,5-dihydro-3H-2,3-benzodiazepine-3-carboxamide]	230	790
CNC(=O)N1N=C(c2ccc(-c3cncc(C#N)c3)cc2)c2cc(OC)c(OC)cc2CC1C (racemic) [Example 126, (±)-1-[4-(5-cyanopyridin-3-yl)phenyl]-7,8-dimethoxy-N,4-dimethyl-4,5-dihydro-3H-2,3-benzodiazepine-3-carboxamide]	90	740
COc1cc2c(cc1OC)C(c1ccc(N3CCN(C)CC3)cc1)=NN(C(C)=O)C(C)C2 (racemic) [Example 245, (±)-1-{7,8-Dimethoxy-4-methyl-1-[4-(4-methylpiperazin-1-yl)phenyl]-4,5-dihydro-3H-2,3-benzodiazepin-3-yl}ethanone]	620	860
CNC(=O)N1N=C(c2ccc(-c3ccc(C(F)(F)F)cc3)cc2)c2cc(OC)c(OC)cc2CC1C (racemic) [Example 86, (±)-7,8-dimethoxy-N,4-dimethyl-1-[4′-(trifluoromethyl)biphenyl-4-yl]-4,5-dihydro-3H-2,3-benzodiazepine-3-carboxamide]	390	1430
CNC(=O)N1N=C(c2ccc(N3CCC(O)CC3)cc2)c2cc(Cl)c(OC(F)(F)F)cc2CC1C (racemic) [Example 212, (±)-8-chloro-1-[4-(4-hydroxypiperidin-1-yl)phenyl]-N,4-dimethyl-7-(trifluoromethoxy)-4,5-dihydro-3H-2,3-benzodiazepine-3-carboxamide]	310	820
CNC(=O)N1N=C(c2cccc(-c3ccnn3C)c2)c2cc(OC)c(OC)cc2CC1C (racemic) [Example 55, (±)-7,8-dimethoxy-N,4-dimethyl-1-[3-(1-methyl-1H-pyrazol-5-yl)phenyl]-4,5-dihydro-3H-2,3-benzodiazepine-3-carboxamide]	120	900
CCC1Cc2cc(OC)c(OC)cc2C(c2ccc(N3CCN(S(C)(=O)=O)CC3)cc2)=NN1C(=O)NC (racemic) [Example 203, (±)-4-ethyl-7,8-dimethoxy-N-methyl-1-{4-[4-(methylsulphonyl)piperazin-1-yl]phenyl}-4,5-dihydro-3H-2,3-benzodiazepine-3-carboxamide]	840	3310

Stronger by IC50 (BRD4 (BD1)), values ahead:

IC50 (BRD4 (BD1)) [nM]	IC50 (MOLM-13 cells) [nM]	Compound
80	550	CNC(=O)N1N=C(c2ccc(-c3cnc(OC)nc3)cc2)c2cc(OC)c(OC)cc2CC1C (racemic) [Example 74, (±)-7,8-dimethoxy-1-[4-(2-methoxypyrimidin-5-yl)phenyl]-N,4-dimethyl-4,5-dihydro-3H-2,3-benzodiazepine-3-carboxamide]
70	140	CNC(=O)N1N=C(c2ccc(N3CCCN(C)CC3=O)cc2)c2cc(OC)c(OC)cc2C[C@@H]1C [Example 229, (4S)-7,8-dimethoxy-N,4-dimethyl-1-[4-(4-methyl-2-oxo-1,4-diazepan-1-yl)phenyl]-4,5-dihydro-3H-2,3-benzodiazepine-3-carboxamide]
70	500	CNC(=O)N1N=C(c2ccc(-c3ccc(S(=O)(=O)NC4CC4)cc3)cc2)c2cc(OC)c(OC)cc2CC1C (racemic) [Example 118, (±)-1-[4′-(cyclopropylsulphamoyl)-biphenyl-4-yl]-7,8-dimethoxy-N,4-dimethyl-4,5-dihydro-3H-2,3-benzodiazepine-3-carboxamide]
70	490	CNC(=O)N1N=C(c2ccc(N3CCOCC3=O)cc2)c2cc(OC)ccc2C[C@@H]1C [Example 177, (4S)-8-Methoxy-N,4-dimethyl-1-[4-(3-oxomorpholin-4-yl)phenyl]-4,5-dihydro-3H-2,3-benzodiazepine-3-carboxamide]
60	360	CNC(=O)N1N=C(c2ccc(-c3ccc(N4CCOCC4)cc3)cc2)c2cc(OC)c(OC)cc2CC1C (racemic) [Example 110, (±)-7,8-dimethoxy-N,4-dimethyl-1-[4′-(morpholin-4-yl)biphenyl-4-yl]-4,5-dihydro-3H-2,3-benzodiazepine-3-carboxamide]
50	630	CNC(=O)N1N=C(c2ccc(-c3cnccc3F)cc2)c2cc(OC)c(OC)cc2CC1C (racemic) [Example 123, (±)-1-[4-(4-fluoropyridin-3-yl)phenyl]-7,8-dimethoxy-N,4-dimethyl-4,5-dihydro-3H-2,3-benzodiazepine-3-carboxamide]
50	300	CNC(=O)N1N=C(c2ccc(-c3cncc(C)c3)cc2)c2cc(OC)c(OC)cc2CC1C (racemic) [Example 81, (±)-7,8-dimethoxy-N,4-dimethyl-1-[4-(5-methylpyridin-3-yl)phenyl]-4,5-dihydro-3H-2,3-benzodiazepine-3-carboxamide]
40	350	CNC(=O)N1N=C(c2ccc(-c3cccnc3)cc2)c2cc(OC)c(OC)cc2CC1C (racemic) [Example 103, (±)-7,8-dimethoxy-N,4-dimethyl-1-[4-(pyridin-3-yl)phenyl]-4,5-dihydro-3H-2,3-benzodiazepine-3-carboxamide]
40	250	CNC(=O)N1N=C(c2ccc(-c3c(C)noc3C)cc2)c2cc(N3CCOCC3)ccc2C[C@@H]1C [Example 176.2, (4S)-1-[4-(3,5-Dimethylisoxazol-4-yl)phenyl]-N,4-dimethyl-8-(morpholin-4-yl)-4,5-dihydro-3H-2,3-benzodiazepine-3-carboxamide]
30	280	CNC(=O)N1N=C(c2ccc(N3CCN(C)C(=O)C3)cc2)c2cc(OC)c(OC)cc2CC1C (racemic) [Example 138, (±)-7,8-dimethoxy-N,4-dimethyl-1-[4-(4-methyl-3-oxopiperazin-1-yl)phenyl]-4,5-dihydro-3H-2,3-benzodiazepine-3-carboxamide]
30	100	CNC(=O)N1N=C(c2ccc(N3CC(C)(O)C3)cc2)c2cc(OC)c(OC)cc2C[C@@H]1C [Example 185.2, (4S)-1-[4-(3-hydroxy-3-methylazetidin-1-yl)phenyl]-7,8-dimethoxy-N,4-dimethyl-4,5-dihydro-3H-2,3-benzodiazepine-3-carboxamide]
